Results as given in patent publication US8614327B2 (Vertex Pharmaceuticals Incorporated, priority 2004, dated 2013).

Molecular target: T1, ΔF508-CFTR (Homo sapiens, UniProt P13569, DEL508-508)
T1 construct: expressed in transfected cells
Assay: Membrane potential optical (FRET/VIPR) assay, identification of potentiator compounds
Type: cell-based
Details: Table 3, assay not given; for % Activity: relative efficacy
Summary of the method: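 Double-addition potentiator screen: compound delivered in gluconate-substituted Cl^--free medium, membrane potential followed via CC2-DMPE/DiSBAC2(3) FRET on VIPR. Cells were ΔF508-CFTR-expressing NIH3T3 mouse fibroblasts, held 2 h at 37° C. then 24 h at 27° C. before assay.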

T1 sequence (P13569 with tags, fused parts or gaps DEL508-508): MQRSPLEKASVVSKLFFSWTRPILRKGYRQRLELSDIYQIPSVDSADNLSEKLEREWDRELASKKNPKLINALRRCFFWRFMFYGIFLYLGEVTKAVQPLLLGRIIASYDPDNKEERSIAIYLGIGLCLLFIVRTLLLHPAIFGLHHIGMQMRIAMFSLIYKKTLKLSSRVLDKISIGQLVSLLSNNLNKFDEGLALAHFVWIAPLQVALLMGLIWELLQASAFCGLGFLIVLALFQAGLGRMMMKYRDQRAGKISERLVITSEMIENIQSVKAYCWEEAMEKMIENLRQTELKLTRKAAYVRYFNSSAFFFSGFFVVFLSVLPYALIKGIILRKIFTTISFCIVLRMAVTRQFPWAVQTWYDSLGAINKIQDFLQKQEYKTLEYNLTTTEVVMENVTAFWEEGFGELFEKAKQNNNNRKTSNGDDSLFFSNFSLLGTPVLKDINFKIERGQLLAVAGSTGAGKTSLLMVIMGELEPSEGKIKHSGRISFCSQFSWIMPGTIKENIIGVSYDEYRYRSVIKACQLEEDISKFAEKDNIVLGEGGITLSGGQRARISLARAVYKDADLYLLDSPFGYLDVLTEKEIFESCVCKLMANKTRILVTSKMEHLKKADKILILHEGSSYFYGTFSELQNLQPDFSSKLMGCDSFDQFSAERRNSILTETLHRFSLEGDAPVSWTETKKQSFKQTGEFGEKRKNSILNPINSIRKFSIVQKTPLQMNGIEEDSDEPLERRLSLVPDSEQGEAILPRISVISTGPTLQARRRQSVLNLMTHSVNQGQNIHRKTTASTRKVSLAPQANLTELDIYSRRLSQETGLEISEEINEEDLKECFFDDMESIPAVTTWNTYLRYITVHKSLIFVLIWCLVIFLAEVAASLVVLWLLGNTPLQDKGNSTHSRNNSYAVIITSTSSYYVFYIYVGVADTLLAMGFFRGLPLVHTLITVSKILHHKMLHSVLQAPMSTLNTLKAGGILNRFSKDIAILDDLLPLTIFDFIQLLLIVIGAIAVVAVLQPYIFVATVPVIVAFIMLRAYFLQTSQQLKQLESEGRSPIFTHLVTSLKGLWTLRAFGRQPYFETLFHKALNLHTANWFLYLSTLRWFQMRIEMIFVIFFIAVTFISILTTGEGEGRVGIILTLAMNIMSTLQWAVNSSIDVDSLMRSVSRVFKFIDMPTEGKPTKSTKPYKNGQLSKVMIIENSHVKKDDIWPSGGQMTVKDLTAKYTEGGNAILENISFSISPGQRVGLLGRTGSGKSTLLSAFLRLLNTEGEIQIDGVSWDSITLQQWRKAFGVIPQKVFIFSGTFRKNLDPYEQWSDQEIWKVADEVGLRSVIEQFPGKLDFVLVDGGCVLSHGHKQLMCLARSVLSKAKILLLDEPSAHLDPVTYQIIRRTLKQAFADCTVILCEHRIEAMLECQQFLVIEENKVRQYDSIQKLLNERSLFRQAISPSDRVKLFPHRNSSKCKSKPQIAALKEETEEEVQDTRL

EC50 | % Activity | Compound
< 10 µM | ++ (between 25% to 100%) | O=C(Nc1ccc2cc[nH]c2c1)c1cnc2ccc(Cl)cc2c1O [Compound 358, 6-chloro-4-hydroxy-N-(1H-indol-6-yl)quinoline-3-carboxamide]
10 to 25 µM | ++ (between 25% to 100%) | CN(C)CCS(=O)(=O)Nc1cc(NC(=O)c2c[nH]c3ccccc3c2=O)cc(C(F)(F)F)c1 [Compound 359, N-[3-(2-dimethylaminoethylsulfonylamino)-5-(trifluoromethyl)phenyl]-4-oxo-1H-quinoline-3-carboxamide]
< 10 µM | ++ (between 25% to 100%) | O=C(Nc1ccc(OC(F)F)cc1)c1c[nH]c2ccccc2c1=O [Compound 360, N-[4-(difluoromethoxy)phenyl]-4-oxo-1H-quinoline-3-carboxamide]
 | +++ (>100%) | COc1ccc(OC)c(-c2ccccc2NC(=O)c2c[nH]c3ccccc3c2=O)c1 [Compound 361, N-[2-(2,5-dimethoxyphenyl)phenyl]-4-oxo-1H-quinoline-3-carboxamide]
< 10 µM | ++ (between 25% to 100%) | CC(C)(C)c1ccc(NC(=O)c2c[nH]c3ccccc3c2=O)c(Cl)c1 [Compound 362, N-(2-chloro-4-tert-butyl-phenyl)-4-oxo-1H-quinoline-3-carboxamide]
< 10 µM | +++ (>100%) | COc1cccc(-c2ccccc2NC(=O)c2c[nH]c3ccccc3c2=O)c1F [Compound 363, N-[2-(2-fluoro-3-methoxy-phenyl)phenyl]-4-oxo-1H-quinoline-3-carboxamide]
< 10 µM | ++ (between 25% to 100%) | Cc1ccc2cccc(NC(=O)c3c[nH]c4ccccc4c3=O)c2n1 [Compound 364, N-(2-methyl-8-quinolyl)-4-oxo-1H-quinoline-3-carboxamide]
10 to 25 µM | ++ (between 25% to 100%) | CC(=O)c1ccccc1NC(=O)c1c[nH]c2ccccc2c1=O [Compound 365, N-(2-acetylphenyl)-4-oxo-1H-quinoline-3-carboxamide]
< 10 µM | ++ (between 25% to 100%) | O=C(Nc1ccccc1-c1ccc(C(F)(F)F)cc1)c1c[nH]c2ccccc2c1=O [Compound 366, 4-oxo-N-[2-[4-(trifluoromethyl)phenyl]phenyl]-1H-quinoline-3-carboxamide]
< 10 µM | ++ (between 25% to 100%) | O=C(Nc1ccccc1-c1cc(Cl)cc(Cl)c1)c1c[nH]c2ccccc2c1=O [Compound 367, N-[2-(3,5-dichlorophenyl)phenyl]-4-oxo-1H-quinoline-3-carboxamide]
< 10 µM | ++ (between 25% to 100%) | CCCOc1ccc(NC(=O)c2c[nH]c3ccccc3c2=O)cc1N [Compound 368, N-(3-amino-4-propoxy-phenyl)-4-oxo-1H-quinoline-3-carboxamide]
10 to 25 µM | + (<25%) | N#Cc1cc(Cl)cc(Cl)c1NC(=O)c1c[nH]c2ccccc2c1=O [Compound 369, N-(2,4-dichloro-6-cyano-phenyl)-4-oxo-1H-quinoline-3-carboxamide]
< 10 µM | ++ (between 25% to 100%) | O=C(Nc1cccc(Cl)c1)c1c[nH]c2ccccc2c1=O [Compound 370, N-(3-chlorophenyl)-4-oxo-1H-quinoline-3-carboxamide]
< 10 µM | ++ (between 25% to 100%) | O=C(Nc1ccccc1SC(F)(F)F)c1c[nH]c2ccccc2c1=O [Compound 371, 4-oxo-N-[2-(trifluoromethylsulfanyl)phenyl]-1H-quinoline-3-carboxamide]
< 10 µM | ++ (between 25% to 100%) | CC1CCN(c2ccccc2NC(=O)c2c[nH]c3ccccc3c2=O)CC1 [Compound 372, N-[2-(4-methyl-1-piperidyl)phenyl]-4-oxo-1H-quinoline-3-carboxamide]
< 10 µM | ++ (between 25% to 100%) | O=C(Nc1cccc2c1CCC2)c1c[nH]c2ccccc2c1=O [Compound 373, N-indan-4-yl-4-oxo-1H-quinoline-3-carboxamide]
25 to 60 µM | + (<25%) | CSc1nc2ccccc2c(O)c1C(=O)Nc1ccc2cc[nH]c2c1 [Compound 374, 4-hydroxy-N-(1H-indol-6-yl)-2-methylsulfanyl-quinoline-3-carboxamide]
< 10 µM | ++ (between 25% to 100%) | O=C(Nc1ccc2c(c1)CCCC2)c1c[nH]c2ccccc2c1=O [Compound 375, 1,4-dihydro-N-(1,2,3,4-tetrahydronaphthalen-6-yl)-4-oxoquinoline-3-carboxamide]
25 to 60 µM | + (<25%) | O=C(Nc1ccc2oc(-c3ccccc3)nc2c1)c1c[nH]c2ccccc2c1=O [Compound 376, 4-oxo-N-(2-phenylbenzooxazol-5-yl)-1H-quinoline-3-carboxamide]

EC50 | % Activity | Compound
10 to 25 µM | ++ (between 25% to 100%) | O=C(Nc1ccc2cc[nH]c2c1)c1cnc2c(F)cc(F)cc2c1O [Compound 377, 6,8-difluoro-4-hydroxy-N-(1H-indol-6-yl)quinoline-3-carboxamide]
10 to 25 µM | ++ (between 25% to 100%) | COc1ccc(NC(=O)c2c[nH]c3ccccc3c2=O)cc1N [Compound 378, N-(3-amino-4-methoxy-phenyl)-4-oxo-1H-quinoline-3-carboxamide]
10 to 25 µM | ++ (between 25% to 100%) | CC(=O)Nc1cc(NC(=O)c2c[nH]c3ccccc3c2=O)cc(C(F)(F)F)c1 [Compound 379, N-[3-acetylamino-5-(trifluoromethyl)phenyl]-4-oxo-1H-quinoline-3-carboxamide]
< 10 µM | ++ (between 25% to 100%) | CCOc1ccccc1NC(=O)c1c[nH]c2ccccc2c1=O [Compound 380, N-(2-ethoxyphenyl)-4-oxo-1H-quinoline-3-carboxamide]
< 10 µM | ++ (between 25% to 100%) | CC(C)(C)c1cc2cc[nH]c2cc1NC(=O)c1c[nH]c2ccccc2c1=O [Compound 381, 4-oxo-N-(5-tert-butyl-1H-indol-6-yl)-1H-quinoline-3-carboxamide]
< 10 µM | ++ (between 25% to 100%) | CCCc1ccc(NC(=O)c2c[nH]c3ccccc3c2=O)cc1NC(=O)OCC [Compound 382, [5-[(4-oxo-1H-quinolin-3-yl)carbonylamino]-2-propyl-phenyl]aminoformic acid ethyl ester]
< 10 µM | ++ (between 25% to 100%) | CCc1c[nH]c2cc(NC(=O)c3c[nH]c4ccccc4c3=O)ccc12 [Compound 383, N-(3-ethyl-1H-indol-6-yl)-4-oxo-1H-quinoline-3-carboxamide]
< 10 µM | ++ (between 25% to 100%) | O=C(Nc1ccccc1-c1cc(F)ccc1F)c1c[nH]c2ccccc2c1=O [Compound 384, N-[2-(2,5-difluorophenyl)phenyl]-4-oxo-1H-quinoline-3-carboxamide]
 | ++ (between 25% to 100%) | O=C(Nc1cccnc1Oc1ccc(F)cc1F)c1c[nH]c2ccccc2c1=O [Compound 385, N-[2-(2,4-difluorophenoxy)-3-pyridyl]-4-oxo-1H-quinoline-3-carboxamide]
< 10 µM | ++ (between 25% to 100%) | CC1(C)CNc2cc(NC(=O)c3c[nH]c4ccccc4c3=O)ccc21 [Compound 386, N-(3,3-dimethylindolin-6-yl)-4-oxo-1H-quinoline-3-carboxamide]
< 10 µM | ++ (between 25% to 100%) | Cc1c(NC(=O)c2c[nH]c3ccccc3c2=O)cccc1C(F)(F)F [Compound 387, N-[2-methyl-3-(trifluoromethyl)phenyl]-4-oxo-1H-quinoline-3-carboxamide]
< 10 µM | ++ (between 25% to 100%) | O=C(Nc1ccccc1-c1ccc(OC(F)(F)F)cc1)c1c[nH]c2ccccc2c1=O [Compound 388, 4-oxo-N-[2-[4-(trifluoromethoxy)phenyl]phenyl]-1H-quinoline-3-carboxamide]
< 10 µM | ++ (between 25% to 100%) | O=C(Nc1cccc(Cc2ccccc2)c1)c1c[nH]c2ccccc2c1=O [Compound 389, N-(3-benzylphenyl)-4-oxo-1H-quinoline-3-carboxamide]
25 to 60 µM | + (<25%) | CC(C)(C)c1ccc(NC(=O)c2c[nH]c3ccccc3c2=O)cc1CN [Compound 390, N-[3-(Aminomethyl)-4-tert-butyl-phenyl]-4-oxo-1H-quinoline-3-carboxamide]
< 10 µM | ++ (between 25% to 100%) | CC(C)Cc1ccc(-c2ccccc2NC(=O)c2c[nH]c3ccccc3c2=O)cc1 [Compound 391, N-[2-(4-isobutylphenyl)phenyl]-4-oxo-1H-quinoline-3-carboxamide]
25 to 60 µM | + (<25%) | O=C(Nc1ccc(Cl)nc1)c1c[nH]c2ccccc2c1=O [Compound 392, N-(6-chloro-3-pyridyl)-4-oxo-1H-quinoline-3-carboxamide]
< 10 µM | ++ (between 25% to 100%) | CCOc1ccccc1-c1ccc(N)cc1NC(=O)c1c[nH]c2ccccc2c1=O [Compound 393, N-[5-amino-2-(2-ethoxyphenyl)-phenyl]-4-oxo-1H-quinoline-3-carboxamide]
25 to 60 µM | + (<25%) | Cc1ccc2c(c1)c(=O)c(C(=O)Nc1ccccc1)cn2C [Compound 394, 1,6-dimethyl-4-oxo-N-phenyl-1H-quinoline-3-carboxamide]
< 10 µM | ++ (between 25% to 100%) | O=C(Nc1cc(O)c(C23CC4CC(CC(C4)C2)C3)cc1F)c1cnc2ccccc2c1O [Compound 395, N-[4-(1-adamantyl)-2-fluoro-5-hydroxy-phenyl]-4-hydroxy-quinoline-3-carboxamide]
